Read-outs that look alike come from different tables or passages of the source.
What was measured:
[1] = Phase 1/2 clinical study: pharmacokinetics in cancer patients; type: in vivo, human; settings: for concentration at 8 h / concentration at 24 h / half-life / Cmax / Tmax / concentration at 0 h / concentration at 1 h / concentration at 2 h / concentration at 4 h: human, plasma, oral; for concentration at 8 h / concentration at 24 h / concentration at 0 h / concentration at 1 h / concentration at 2 h / concentration at 4 h: read-out: Mean patient plasma CONC (SD); for concentration at 24 h: 24 hr (not measured, inferred based on predose); for Cmax: read-out: Cmax Geo mean (% CV); for Tmax: read-out: Tmax Median (min, max)
Excerpt: The study is an open-label, multi-center study of oral BTK-I to evaluate safety and efficacy as monotherapy and as part of combination therapy in patients with CLL/SLL and NHL who have failed or are intolerant to standard of care. This study includes monotherapy as well as combination treatment parts. The monotherapy part includes Phase 1 dose escalation and dose expansion as well as Phase 2. The combination therapy part is a Phase 1b (safety assessment and expansion) of BTK-I in combination with venetoclax, with or without anti-CD20 therapy. Phase 1 dose escalation will proceed prior to start of Phase 1b or Phase 2. Once a recommended Phase 2 dose (RP2D) is identified in Phase 1, enrollment can commence to the Phase 1b combination therapies and Phase 2 monotherapy cohorts.
BTK-I is administered in oral tablet form. Dose escalation will follow a 3+3 design starting with a 25 mg QD dose (followed by 50 mg QD (dose level cohort 2), 100 mg QD (dose level cohort 3), 150 mg QD (dose level cohort 4), 200 mg QD (dose level cohort 5), 250 mg QD (dose level cohort 6), and 300 mg QD (dose level cohort 7)). Cycle length will be 28 days. The drug limiting toxicity (DLT) period will be 28 days, commencing with the first dose of BTK-I.
The pharmacokinetic profiles and adverse events for BTK-I doses are summarized in the below tables.
Pharmacokinetic Parameters of BTK-I—in Cancer Patients at Steady State (Cycle 1 Day 8)

TMD8 BTK WT cells = assay: In vivo mouse xenograft study, TMD8 BTK WT; parameters: species or system mice; settings: BTK-I BID alone; BTK WT driven TMD8 (DLBCL) xenograft
Experimental: (§1) In all studies, test articles are administered alone and in combination, following different dosing regimens.
(§2) Human TMD8 BTK WT, TMD8 BTK C481S or REC-1 cells are injected subcutaneously in the right flank of mice. When tumors reach a mean volume between 150 mm^3 and 400 mm^3, mice are randomized based on their tumor volumes. Mice are next dosed for 14 to 23 days depending on the study design. The potencies of the compounds stand-alone or in combination on the inhibition of the tumor growth are assessed based on the tumor volume changes and weights after collection at the end of the study. Additionally, in the TMD8 studies, the plasma concentrations of test articles are measured at multiple time points after the last dose.

REC-1 cells = assay: In vivo mouse xenograft study, REC-1; parameters: species or system mice; settings: BTK-I BID alone; BTK WT driven REC-1 (MCL) xenograft
Experimental: as §1, §2

[2] = 100 mg QD, steady state (Cycle 1 Day 8), N=9
[3] = 150 mg QD, steady state (Cycle 1 Day 8), N=20
[4] = 200 mg QD, steady state (Cycle 1 Day 8), N=99
[5] = 300 mg QD, steady state (Cycle 1 Day 8), N=17

SMILES: COc1ccc(F)cc1C(=O)NCc1ccc(-c2nn([C@@H](C)C(F)(F)F)c(N)c2C(N)=O)cc1 [BTK-I, (S)-5-amino-3-(4-((5-fluoro-2-methoxybenzamido)methyl)phenyl)-1-(1,1,1-trifluoropropane-2-yl)-1H-pyrazole-4-carboxamide]
- concentration at 8 h ([1]; 50 mg): 1020 ng/mL
- concentration at 24 h ([1]; 50 mg): 571 ng/mL
- half-life ([1]; 100 mg QD, steady state (Cycle 1 Day 8), N = 8, % CV 33.9%, read-out: T1/2 Geo mean (% CV) (converted)): 22.2 h
- Cmax [1, 2]: 3910 ng/mL
- Tmax [1, 2]: 2 h
- concentration at 0 h ([1]; 100 mg): 1580 ng/mL
- concentration at 1 h ([1]; 100 mg): 2170 ng/mL
- concentration at 2 h ([1]; 100 mg): 3670 ng/mL
- concentration at 4 h ([1]; 100 mg): 2800 ng/mL
- concentration at 8 h ([1]; 100 mg): 2360 ng/mL
- concentration at 24 h ([1]; 100 mg): 1580 ng/mL
- Cmax [1, 3]: 4680 ng/mL
- Tmax [1, 3]: 2 h
- concentration at 0 h ([1]; 150 mg): 1800 ng/mL
- concentration at 1 h ([1]; 150 mg): 3670 ng/mL
- concentration at 2 h ([1]; 150 mg): 4640 ng/mL
- concentration at 4 h ([1]; 150 mg): 3660 ng/mL
- concentration at 8 h ([1]; 150 mg): 3320 ng/mL
- concentration at 24 h ([1]; 150 mg): 1800 ng/mL
- half-life ([1]; 200 mg QD, steady state (Cycle 1 Day 8), N = 64, % CV 56.2%, read-out: T1/2 Geo mean (% CV) (converted)): 19.9 h
- Cmax [1, 4]: 5770 ng/mL
- Tmax [1, 4]: 2 h
- concentration at 0 h ([1]; 200 mg): 2770 ng/mL
- concentration at 1 h ([1]; 200 mg): 4940 ng/mL
- concentration at 2 h ([1]; 200 mg): 6160 ng/mL
- concentration at 4 h ([1]; 200 mg): 5270 ng/mL
- concentration at 8 h ([1]; 200 mg): 4660 ng/mL
- concentration at 24 h ([1]; 200 mg): 2770 ng/mL
- half-life ([1]; 250 mg QD, steady state (Cycle 1 Day 8), N = 21, % CV 50.6%, read-out: T1/2 Geo mean (% CV) (converted)): 17.4 h
- Tmax ([1]; 250 mg QD, steady state (Cycle 1 Day 8), N=25): 2 h
- concentration at 0 h ([1]; 250 mg): 3160 ng/mL
- concentration at 1 h ([1]; 250 mg): 6910 ng/mL
- concentration at 2 h ([1]; 250 mg): 7870 ng/mL
- concentration at 4 h ([1]; 250 mg): 6840 ng/mL
- concentration at 8 h ([1]; 250 mg): 5500 ng/mL
- concentration at 24 h ([1]; 250 mg): 3160 ng/mL
- half-life ([1]; 300 mg QD, steady state (Cycle 1 Day 8), N = 16, % CV 102%, read-out: T1/2 Geo mean (% CV) (converted)): 30.1 h
- Cmax [1, 5]: 10700 ng/mL
- Tmax [1, 5]: 2 h
- concentration at 0 h ([1]; 300 mg): 5510 ng/mL
- concentration at 1 h ([1]; 300 mg): 9730 ng/mL
- concentration at 2 h ([1]; 300 mg): 10700 ng/mL
- concentration at 4 h ([1]; 300 mg): 8420 ng/mL
- concentration at 8 h ([1]; 300 mg): 7510 ng/mL
- concentration at 24 h ([1]; 300 mg): 5510 ng/mL
- half-life ([1]; patients, read-out: observed half-life (converted)): ~20 h
- target coverage for wild-type and C481S-mutated BTK ([1]; starting at the 50 mg QD dose, estimates from cell-based potencies): delivered >IC90 target coverage
- inhibition of xenograft tumor growth (TMD8 BTK WT cells): potently inhibited the growth
- inhibition of xenograft tumor growth (REC-1 cells): potently inhibited the growth

From patent publication US12551463B2, “Dosing of a Bruton's tyrosine kinase inhibitor” (Loxo Oncology, Inc., priority 2019, dated 2026)
